The target in this test is T1, human B1 (Homo sapiens, UniProt P46663).
T1 construct: host or cells: CHO-K1
T1 sequence (P46663 1-353): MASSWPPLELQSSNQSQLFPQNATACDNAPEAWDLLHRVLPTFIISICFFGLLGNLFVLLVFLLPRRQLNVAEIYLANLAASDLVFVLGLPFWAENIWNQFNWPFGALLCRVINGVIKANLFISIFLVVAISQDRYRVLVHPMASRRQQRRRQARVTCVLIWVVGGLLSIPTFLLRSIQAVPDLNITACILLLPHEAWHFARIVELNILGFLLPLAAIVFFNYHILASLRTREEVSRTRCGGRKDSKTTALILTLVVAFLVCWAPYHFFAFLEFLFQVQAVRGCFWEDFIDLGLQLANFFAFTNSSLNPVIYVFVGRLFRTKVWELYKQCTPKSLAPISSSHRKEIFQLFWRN
In words: Calcium flux assay for Bradykinin B1 antagonist, CHO-K1 cell line expressing human B1. The following applies: CHO-K1 cells expressing human B1, agonist Lys-(Des-Arg)-Bradykinin, read-out: Potency (IC50 value against human B1). It counts as cell-based. On the procedure: Calcium Flux Assay for Bradykinin B1 Antagonist
The potency to inhibit the Bradykinin B1 receptors was determined for the compounds of this invention in a cell-based fluorescent calcium-mobilization assay. The assay measures the ability of test compounds to inhibit Bradykinin B1 receptor agonist-induced increase of intracellular free Ca^2+ in cell lines expressing B1.
The change of the intracellular Ca^2+ concentration is monitored with a specifically designed fluorescent plate reader (FlexStation, Molecular Devices).
CHO-K1 cell line expressing human B1 was purchased from Euroscreen (Gosselies, Belgium, with reference name hBl-D1). CHO-K1 cell lines expressing rat B1 or mouse B1 were established in the following way: the full-length receptor-coding cDNA clones were obtained by PCR performed on rat or mouse brain cDNAs. The respective cDNAs were cloned into an expression vector under the control of a CMV promotor. The resultant plasmids were introduced into CHO-K1 cells with liposome technology (FuGENE; Roche Diagnostics, Basel), according to the standard protocols described by the manufacturer. Cell lines expressing a Bradykinin receptor were selected in the culture medium containing 400 μg/ml G418 (Sigma). From selected cell populations, monoclonal cell lines were isolated by single cell cloning. The expression of Bradykinin receptors was confirmed by immunofluorescence staining of the cells, as well as by calcium flux assay.
Human B1-expressing cells were grown in Nutrient Mixture Ham's F12 (Sigma) containing 10% Foetal bovine serum (Sigma) and 400 μg/ml G418 (Sigma), 5 μg/ml puromycim (Sigma); Rat B1 and mouse B1-expressing cells were grown in DMEM/F12 medium (Sigma) containing 10% Foetal bovine serum (Sigma) and 400 μg/ml G418 (Sigma).
For the calcium flux assay, 80% confluent cells were detached from the culture vessels with Versene (Gibco; for human B1 cell-line) or with 1× trypsin-EDTA solution (Sigma; for rodent B1 cell-line), and seeded into 384-well plates (Cell binding Surface; Corning, N.Y.; #3683) at a density of 15,000 cells per well for human B1 or at a density of 20,000 cells per well for rodent B1. Cells were seeded in a volume of 50 μl in medium without antibiotics and incubated overnight in a humidified atmosphere with 5% CO2 at 37° C. The following day, the medium was replaced with 20 μl of 5 μM Fluo-4AM dye (Molecular Probes) in assay buffer (2.5 mM probenicid, 1 mg/ml pluronic acid, 0.1% BSA, 135 mM NaCl, 5 mM KCl, 1.8 mM CaCl, 1 mM MgCl2, 10 mM HEPES, 5.6 mM glucose, 0.05% gelatine, pH 7.4). The calcium indicator loaded cells were incubated at 37° C. for 2 hrs. Extracellular dye was then removed and each well was filled with 45 μl of assay buffer. Cell plates were kept in dark until used. Test compounds were assayed at 8 concentrations in triplicate. Serial 10-fold dilutions in 100% DMSO were made at a 100-times higher concentration than the final concentration, and then diluted 1:10 in assay buffer. 5 μl of each diluted compound was added to the well of cell plates (yielding final concentration with 1% DMSO), and incubated for 30 min at 25° C. before the addition of B1 agonist on the FlexStation.
The addition of agonist 20 μl per well to the assay plate was carried out on the FlexStation while continuously monitoring Ca^2+-dependent fluorescence at 538 nm. The integrated values, normalized with the background fluorescence, were plotted against the logarithm of the antagonist concentrations.
On the technique in general: Calcium assays in cells follow changes in intracellular calcium, usually with a dye or a luminescent sensor.
The term IC50 denotes the concentration at which inhibition is half-maximal. Regarding `CN(CCc1ccc(C2=NCCN2)cc1)C(=O)c1coc(CN(C)S(=O)(=O)c2ccc(Cl)cc2Cl)c1` [Ex 22, 5-({[(2,4-dichlorophenyl)sulfonyl](methyl)amino}methyl)-N-{2-[4-(4,5-dihydro-1H-imidazol-2-yl)phenyl]ethyl}-N-methylfuran-3-carboxamide], the half-maximal inhibitory concentration (IC50) lay within 100 to 1000 nM. For the compound `CN(Cc1ccc(C2=NCCN2)cc1)C(=O)c1coc(CN(C)S(=O)(=O)c2c(Cl)cccc2Cl)c1` [Ex 23, 5-({[(2,6-dichlorophenyl)sulfonyl](methyl)amino}methyl)-N-[4-(4,5-dihydro-1H-imidazol-2-yl)benzyl]-N-methylfuran-3-carboxamide], the half-inhibitory concentration (IC50) is less than 10 nM.

With `CN(CCc1ccc(C2=NCCN2)cc1)C(=O)c1coc(CN(C)S(=O)(=O)c2c(Cl)cc(Br)cc2Cl)c1` [Ex 24, 5-({[(4-bromo-2,6-dichlorophenyl)sulfonyl](methyl)amino}methyl)-N-{2-[4-(4,5-dihydro-1H-imidazol-2-yl)phenyl]ethyl}-N-methylfuran-3-carboxamide], the 50% inhibitory concentration (IC50) is less than 10 nM. Take `CN(Cc1cc(C(=O)NCCc2ccc(C3=NCCN3)cc2)co1)S(=O)(=O)c1c(Cl)cc(Br)cc1Cl` [Ex 25, 5-({[(4-bromo-2,6-dichlorophenyl)sulfonyl](methyl)amino}methyl)-N-{2-[4-(4,5-dihydro-1H-imidazol-2-yl)phenyl]ethyl}furan-3-carboxamide]: the half-inhibitory concentration (IC50) is 100 to 1000 nM. Turning to `CN(Cc1cc(C(=O)NCc2ccc(C3=NCCN3)cc2)co1)S(=O)(=O)c1c(Cl)cccc1Cl` [Ex 26, 5-({[(2,6-dichlorophenyl)sulfonyl](methyl)amino}methyl)-N-[4-(4,5-dihydro-1H-imidazol-2-yl)benzyl]furan-3-carboxamide], the concentration for half-maximal inhibition (IC50) lay in the range of 100 to 1000 nM. On to `CN(Cc1cc(C(=O)NCc2ccc(CN3CCCC3)cc2)co1)S(=O)(=O)c1c(Cl)cc(Br)cc1Cl` [Ex 27, 5-({[(4-bromo-2,6-dichlorophenyl)sulfonyl](methyl)amino}methyl)-N-[4-(pyrrolidin-1-ylmethyl)benzyl]furan-3-carboxamide], for which the IC50 is 100 to 1000 nM. `Cc1cc(S(=O)(=O)N(C)Cc2cc(C(=O)N(C)CCc3ccc(C4=NCCN4)cc3)co2)c(C)cc1Cl` [Ex 28, 5-({[(4-chloro-2,5-dimethylphenyl)sulfonyl](methyl)amino}methyl)-N-{2-[4-(4,5-dihydro-1H-imidazol-2-yl)phenyl]ethyl}-N-methylfuran-3-carboxamide]: the IC50 lay in the range of 100 to 1000 nM. The value for `COc1cc(C)c(S(=O)(=O)N(C)Cc2cc(C(=O)N(C)Cc3ccc(C4=NCCN4)cc3)co2)c(C)c1` [Ex 29, N-[4-(4,5-dihydro-1H-imidazol-2-yl)benzyl]-5-({[(4-methoxy-2,6-dimethylphenyl)sulfonyl](methyl)amino}methyl)-N-methylfuran-3-carboxamide] was less than 10 nM; that for `COc1cc(C)c(S(=O)(=O)N(C)Cc2cc(C(=O)N3CCCC(c4ccc(C5=NCCN5)cc4)C3)co2)c(C)c1` (stereo not drawn) [Ex 30, N-{[4-({3-[4-(4,5-dihydro-1H-imidazol-2-yl)phenyl]piperidin-1-yl}carbonyl)furan-2-yl]methyl}-4-methoxy-N,2,6-trimethylbenzenesulfonamide] was less than 10 nM; that for `COc1cc(C)c(S(=O)(=O)N(C)Cc2cc(C(=O)N3CCN(CC4CCCN(C)C4)CC3)co2)c(C)c1` (stereo not drawn) [Ex 31, 4-methoxy-N,2,6-trimethyl-N-{[4-({4-[(1-methylpiperidin-3-yl)methyl]piperazin-1-yl}carbonyl)furan-2-yl]methyl}benzenesulfonamide] was 10 to 100 nM. In the case of `COc1cc(C)c(S(=O)(=O)N(C)Cc2cc(C(=O)N3CCN(CC4CCN(C)CC4)CC3)co2)c(C)c1` [Ex 32, 4-methoxy-N,2,6-trimethyl-N-{[4-({4-[(1-methylpiperidin-4-yl)methyl]piperazin-1-yl}carbonyl)furan-2-yl]methyl}benzenesulfonamide], the IC50 lay in the range of 100 to 1000 nM.

On to `COc1cc(C)c(S(=O)(=O)N(C)Cc2cc(C(=O)N3CCN(CCc4ccncc4)CC3)co2)c(C)c1` [Ex 33, 4-methoxy-N,2,6-trimethyl-N-[(4-{[4-(2-pyridin-4-ylethyl)piperazin-1-yl]carbonyl}furan-2-yl)methyl]benzenesulfonamide], for which the IC50 was 100 to 1000 nM. In the case of `COc1cc(C)c(S(=O)(=O)N(C)Cc2cc(C(=O)N3CCN(Cc4ccncc4)CC3)co2)c(C)c1` [Ex 34, 4-methoxy-N,2,6-trimethyl-N-[(4-{[4-(pyridin-4-ylmethyl)piperazin-1-yl]carbonyl}furan-2-yl)methyl]benzenesulfonamide], the IC50 is 100 to 1000 nM. Regarding `COc1cc(C)c(S(=O)(=O)N(C)Cc2cc(C(=O)N3CCN(CCN4CCOCC4)CC3)co2)c(C)c1` [Ex 35, 4-methoxy-N,2,6-trimethyl-N-[(4-{[4-(2-morpholin-4-ylethyl)piperazin-1-yl]carbonyl}furan-2-yl)methyl]benzenesulfonamide], the IC50 lay in the range of 100 to 1000 nM.

As for `COc1cc(C)c(S(=O)(=O)N(C)Cc2cc(C(=O)NCCc3ccc(C4=N[C@@H]5CCCC[C@H]5N4)cc3)co2)c(C)c1` [Ex 36, N-(2-{4-[(3aR,7aR)-3a,4,5,6,7,7a-hexahydro-1H-benzimidazol-2-yl]phenyl}ethyl)-5-({[(4-methoxy-2,6-dimethylphenyl)sulfonyl](methyl)amino}methyl)furan-3-carboxamide], the IC50 fell in the range of 10 to 100 nM. The value for `COc1cc(C)c(S(=O)(=O)N(C)Cc2cc(C(=O)NCc3ccc(CN4CCCC4)cc3)co2)c(C)c1` [Ex 37, 5-({[(4-methoxy-2,6-dimethylphenyl)sulfonyl](methyl)amino}methyl)-N-[4-(pyrrolidin-1-ylmethyl)benzyl]furan-3-carboxamide] was 100 to 1000 nM. Regarding `COc1cc(C)c(S(=O)(=O)N(C)Cc2cc(C(=O)N(C)Cc3ccc(-c4cncnc4)cc3)co2)c(C)c1` [Ex 38, 5-({[(4-methoxy-2,6-dimethylphenyl)sulfonyl](methyl)amino}methyl)-N-methyl-N-(4-pyrimidin-5-ylbenzyl)furan-3-carboxamide], the IC50 was in the range of 100 to 1000 nM. In the case of `COc1cc(C)c(S(=O)(=O)N(C)Cc2cc(C(=O)N3CCN(CCN4CCCC4)CC3)co2)c(C)c1` [Ex 39, 4-methoxy-N,2,6-trimethyl-N-[(4-{[4-(2-pyrrolidin-1-ylethyl)piperazin-1-yl]carbonyl}furan-2-yl)methyl]benzenesulfonamide], the 50% inhibitory concentration (IC50) is 100 to 1000 nM. The value for `COc1cc(C)c(S(=O)(=O)N(C)Cc2cc(C(=O)N(C)Cc3ccc(C4=NCC(C)(C)CN4)cc3)co2)c(C)c1` [Ex 40, N-[4-(5,5-dimethyl-1,4,5,6-tetrahydropyrimidin-2-yl)benzyl]-5-({[(4-methoxy-2,6-dimethylphenyl)sulfonyl](methyl)amino}methyl)-N-methylfuran-3-carboxamide] was 100 to 1000 nM; that for `COc1cc(C)c(S(=O)(=O)N(C)Cc2cc(C(=O)N3CCC(CN4CCCC4)CC3)co2)c(C)c1` [Ex 41, 4-methoxy-N,2,6-trimethyl-N-[(4-{[4-(pyrrolidin-1-ylmethyl)piperidin-1-yl]carbonyl}furan-2-yl)methyl]benzenesulfonamide] was 100 to 1000 nM.

For the compound `COc1cc(C)c(S(=O)(=O)N(C)Cc2cc(C(=O)NCCc3ccc(CNCC(C)C)cc3)co2)c(C)c1` [Ex 42, 5-({[(4-methoxy-2,6-dimethylphenyl)sulfonyl](methyl)amino}methyl)-N-[2-(4-{[(2-methylpropyl)amino]methyl}phenyl)ethyl]furan-3-carboxamide], the IC50 fell in the range of 100 to 1000 nM.

The record behind these values is US8623859B2, “Bradykinin B1 antagonists” (Evotec AG, priority 2008, dated 2014).
